Patent publication US8338475B2, “Anti-proliferative pharmaceutical composition” (BioCis Pharma Oy, priority 2003, dated 2012)

What was measured:
[1] = test system: K562 (chronic myelogenous leukemia); assay: Proliferation assay (CellTiter 96), K562 cells; format: cell-based, human; details: pH 6.5, 44 h, cis-UCA 10 mM, CPT 2 μM, 15,000 cells per 100 μl
Text: (§1) Transformed tumour cell lines WM 266-4 and A2058 (cutaneous melanoma), HT-1080 (epithelial fibrosarcoma), HeLa (epithelial adenocarcinoma of cervix), HK293 (kidney epithelial cells) and non-transformed cell line HSF (skin fibroblast from a healthy volunteer donor) of human origin have been described earlier (Li et al. 2003). The K562 (chronic myelogenous leukemia) cells were purchased from American Type Culture Collection.
(§2) The cells were maintained in logarithmic growth phase in IMDM medium (Invitrogen, Paisley, UK) supplemented with 10% fetal calf serum and antibiotics in a humidified incubator at +37° C., 5% CO2. The adherent cells lines were harvested for experiments with 0.25% trypsin-EDTA in PBS for 5 min and then resuspended and washed in medium. After counting of viable cells, 15,000 to 75,000 cells were transferred into flat-bottom 96-well cell culture plates in a volume of 100 or 150 μl.
(§3) The proliferation activity of cultured cell lines was quantified in flat-bottom 96-well plates with a modified colorimetric assay based on a tetrazolium derivative (CellTiter 96 Aqueous One Solution Cell Proliferation Assay, Promega). The cells were cultured in the presence of camptothecin and/or cis-UCA for 20 to 92 h, then the proliferation reagent was added for 2 h, and the absorbance at 490 nm was measured in a plate reader. […]

[2] = test system: A2058 tumours; assay: Haematoxylin/eosin staining of tumour sections (necrosis); format: in vivo, SCID/SCID mice; details: tumours collected after 16 days; 30 mM cis-UCA, 1 μM CPT intratumoural
Text: After 16 days from the first injection, all the animals were sacrificed with CO2, and the tumours were collected and fixed in formalin for further studies. In groups A, C, and D, one mouse was sacrificed before the end of the experiment because of poor development of the tumour (no measurable tumour at day 0). One animal in group B was sacrificed prematurely after it had severly scratched the tumour. Data from these animals were not included in the calculation of the tumour size results. All the removed animals were female mice. Immunohistochemical data was obtained also from the removed mice except from group B. The experiments were conducted under a protocol approved by the local ethics committee.
Paraffin sections of the tumours were stained with haematoxylin/eosin following standard procedures for an overall picture. Ki67 was stained to detect the amount of proliferating cells. The staining procedure for the Ki67 primary antibody (Dako, Klostrup, Denmark) at 1:50 dilution and secondary antibody (StreptABComplex/HRP Duet Mouse/Rabbit, Dako) at 1:100 dilution followed the instructions provided by the manufacturer. Two sections from each tumour was examined.

[3] = cited from earlier work
[4] = test system: caspase-3; assay: Determination of caspase-3 activity in A2058 melanoma cells; format: cell-based, human; details: 30 mM cis-UCA in pH 6.5 medium, at 2 h
Experimental: The cells were allowed to attach to culture flasks at 5×10^6 cells per 7 ml of medium overnight. The medium was then changed to new medium adjusted to pH 6.5 with or without 30 mM cis-UCA. The cells were incubated for 30 min to 18 h, released with trypsin-EDTA, and lysed for caspase-3 assay. After subtracting the blank values, the mean caspase-3 activity from the cis-UCA-treated cells was divided by the mean value from the corresponding control cells with the same incubation time. The data are the mean±SD from three parallel reactions in the caspase-3 assay.
Caspase-3 is a proteolytic enzyme that has a central role in the apoptotic cascade. The colorimetric assay is based on the hydrolysis of the peptide substrate acetyl-Asp-Glu-Val-Asp p-nitroanilide (Ac-DEVD-pNA) by caspase-3, resulting in the release of p-nitroaniline (pNA).
Cells grown in normal medium were counted and divided into separate cell culture flasks containing 1 μM CPT, 10 mM cis-UCA, or both, in pH 6.5 medium. […] Caspase-3 activity was measured in cell lysates. […] After washing with ice-cold PBS, the counted cells were resuspend in cell lysis buffer (50 mM Hepes, pH 7.4, 5 mM CHAPS, and 5 mM dithiotreitol) in a density of 10^8 cells/ml, incubated on ice for 15-20 min, and the cell lysates pelleted at 15,000×g for 20 min at 4° C. […] Absorbance of the formed end product p-nitroaniline (pNA) was recorded at 405 nm after 2 and 17 h.

[5] = test system: HT-1080 (epithelial fibrosarcoma); assay: Proliferation assay (CellTiter 96), HT-1080 cells; format: cell-based, human; details: pH 6.5, 44 h, cis-UCA 10 mM, CPT 2 μM, 15,000 cells per 100 μl
Text: as §1, §2, §3

[6] = test system: HSF (skin fibroblast); assay: Proliferation assay (CellTiter 96), HSF cells; format: cell-based, human; details: pH 6.5, 44 h, cis-UCA 10 mM, CPT 2 μM, 15,000 cells per 100 μl
Text: as §1, §2, §3

[7] = test system: WM 266-4 (cutaneous melanoma); assay: Proliferation assay (CellTiter 96), WM266-4 cells; format: cell-based, human
Experimental: The cells were cultured in triplicate with or without 2 μM camptothecin (CPT) or 10 mM cis-UCA in a density of 15,000 cells per […]. A, Cells taken from normal pH 7.4 cultures to test conditions at pH 6.5. B, Cells cultured in low pH 6.7 adaptation medium for 3 d, then tested at pH 6.5. C, Cells cultured and tested at pH 7.4.
as §1, §2
The proliferation activity of cultured cell lines was quantified in flat-bottom 96-well plates with a modified colorimetric assay based on a tetrazolium derivative (CellTiter 96 Aqueous One Solution Cell Proliferation Assay, Promega). The cells were cultured in the presence of camptothecin and/or cis-UCA for 20 to 92 h, then the proliferation reagent was added for 2 h, and the absorbance at 490 nm was measured in a plate reader. Blank absorption values in wells containing medium without cells were subtracted before comparison analysis.
The cell lines were tested in a 44-h culture at pH 6.5 with or without 2 μM camptothecin and 10 mM cis-UCA at 15,000 cells per 100 μl total volume. […] In order to further characterise the effective anti-proliferative concentration range of cis-UCA, proliferation was measured in a 44-h assay at pH 6.5 with cis-UCA concentration ranging from 30 μM to 30 mM.

O=C(O)/C=C\c1c[nH]cn1 [cis-UCA, cis-urocanic acid]
Inhibition of proliferation (mean percentage inhibition ± SD compared with untreated control) [1]: 26 ± 2.9% | Necrosis (histological sections with haematoxylin/eosin staining) [2]: Dead cells and large necrotic areas were detected and yes | second pKa (imidazolyl group) ([3]; Roberts et al. 1982, Krien & Kermici 2000): 7.0 | first pKa (carboxyl group) ([3]; Roberts et al. 1982): 3.3 | peak caspase-3 activity compared to cells treated with pH 6.5 medium only [4]: 380% | Inhibition of proliferation (mean percentage inhibition ± SD compared with untreated control) [5]: 47 ± 0.5% | Inhibition of proliferation (mean percentage inhibition ± SD compared with untreated control) [6]: 41 ± 1.1% | percentage inhibition of proliferation ([7]; 10 mM cis-UCA alone, cells from pH 7.4 cultures tested at pH 6.5, 92 h (FIG. 2A)): 36% | percentage inhibition of proliferation ([7]; 10 mM cis-UCA, cells adapted to pH 6.7 for 3 days, tested at pH 6.5, 92 h (FIG. 2B)): 28% | Inhibition of proliferation (mean percentage inhibition ± SD compared with untreated control) ([7]; pH 6.5, 44 h, cis-UCA 10 mM, CPT 2 μM, 15,000 cells per 100 μl): 20 ± 0.6%
